Measurements taken from ChEMBL document CHEMBL6127107, “Oleanolic acid derivatives against drug-resistant bacteria and fungi by multi-targets to avoid drug resistance” (Eur J Med Chem, 2024).
Converted amounts (≈) assume the structure as drawn.

Tests used:
Format in all cases: functional
Staphylococcus aureus [1] = assay: Antimicrobial activity against methicillin-resistant Staphylococcus aureus 003
Enterococcus faecalis = assay: Antimicrobial activity against vancomycin resistant Enterococcus faecalis ATCC 51299
Escherichia coli = assay: Antimicrobial activity against Escherichia coli
Staphylococcus aureus [2] = assay: Antimicrobial activity against Staphylococcus aureus 31
Candida albicans = assay: Antimicrobial activity against fluconazole-resistant Candida albicans
Staphylococcus aureus [3] = assay: Antimicrobial activity against Staphylococcus aureus 29
Staphylococcus aureus [4] = assay: Antimicrobial activity against methicillin-resistant Staphylococcus aureus 011
Staphylococcus aureus [5] = assay: Antimicrobial activity against Staphylococcus aureus 10
Pseudomonas aeruginosa = assay: Antimicrobial activity against Pseudomonas aeruginosa

Row | SMILES | MIC (Staphylococcus aureus [1]) [µg/mL] | MIC (Enterococcus faecalis) [µg/mL] | MIC (Escherichia coli) [µg/mL] | MIC (Staphylococcus aureus [2]) [µg/mL] | MIC (Candida albicans) [µg/mL] | MIC (Staphylococcus aureus [3]) [µg/mL] | MIC (Staphylococcus aureus [4]) [µg/mL] | MIC (Staphylococcus aureus [5]) [µg/mL] | MIC (Pseudomonas aeruginosa) [µg/mL]
1 | C[C@H]1[C@H](C)CC[C@]2(C(=O)O)CC[C@]3(C)C(=CC[C@@H]4[C@@]5(C)C[C@@H](O)[C@H](O)[C@@](C)(CO)[C@@H]5CC[C@]43C)[C@H]12 [ASIATIC ACID] | 16 (≈ 32.7 µM) | 32 (≈ 65.5 µM) | – | – | – | – | – | – | –
2 | CC1(C)CC[C@]2(C(=O)O)CC[C@]3(C)C(=CC[C@@H]4[C@@]5(C)CC[C@H](O[C@@H]6O[C@H](C(=O)O)[C@@H](O)[C@H](O[C@@H]7OC[C@@H](O)[C@H](O)[C@H]7O)[C@H]6O)C(C)(C)[C@@H]5CC[C@]43C)[C@@H]2C1 | > 512 | > 512 | – | – | – | – | – | – | –
3 | C=C1CC[C@]2(C)CC[C@]3(C)[C@H](CC[C@@H]4[C@@]5(C)CC[C@H](OC(C)=O)C(C)(C)[C@@H]5CC[C@]43C)[C@H]2[C@@H]1C [TARAXASTEROL ACETATE] | > 512 | > 512 | – | – | – | – | – | – | –
4 | CCCC(=O)O[C@H]1CC[C@]2(C)[C@H]3CC=C4[C@@H]5CC(C)(C)CC[C@]5(C(=O)O)CC[C@@]4(C)[C@]3(C)CC[C@H]2C1(C)C | > 64 | > 64 | > 64 | > 64 | > 64 | > 64 | > 64 | > 64 | > 64
5 | CCNC(=O)[C@]12CCC(C)(C)C[C@H]1C1=CC[C@@H]3[C@@]4(C)CC[C@H](OC(C)=O)C(C)(C)[C@@H]4CC[C@@]3(C)[C@]1(C)CC2 | > 64 | > 64 | > 64 | > 64 | > 64 | > 64 | > 64 | > 64 | > 64
6 | CC1(C)CC[C@]2(C(=O)O)CC[C@]3(C)C(=CC[C@@H]4[C@@]5(C)CC[C@H](OCC(O)CN6CCCCC6)C(C)(C)[C@@H]5CC[C@]43C)[C@@H]2C1 (stereo partly drawn) | > 64 | > 64 | > 64 | > 64 | > 64 | > 64 | > 64 | > 64 | > 64
7 | CCCCCCCCCCCCCOC(=O)[C@]12CCC(C)(C)C[C@H]1C1=CC[C@@H]3[C@@]4(C)CC[C@H](O)C(C)(C)[C@@H]4CC[C@@]3(C)[C@]1(C)CC2 | > 64 | > 64 | > 64 | > 64 | > 64 | > 64 | > 64 | > 64 | > 64
8 | C[C@H]1[C@H](C)CC[C@]2(C(=O)O)CC[C@]3(C)C(=CC[C@@H]4[C@@]5(C)C[C@@H](O)[C@H](O)C(C)(C)[C@@H]5CC[C@]43C)[C@H]12 [COROSOLIC ACID] | 16 (≈ 33.8 µM) | 32 (≈ 67.7 µM) | – | – | – | – | – | – | –
9 | C[C@H]1[C@H](C)CC[C@]2(C(=O)O)CC[C@]3(C)C(=CC[C@@H]4[C@@]5(C)CCC(=O)C(C)(C)[C@@H]5CC[C@]43C)[C@H]12 [URSONIC ACID] | 128 (≈ 282 µM) | 256 (≈ 563 µM) | – | – | – | – | – | – | –
10 | CC1(C)CC[C@]2(C(=O)O)CC[C@]3(C)C(=CC[C@@H]4[C@@]5(C)CCC(=O)C(C)(C)[C@@H]5CC[C@]43C)[C@@H]2C1 [OLEANONIC ACID] | 256 (≈ 563 µM) | 512 (≈ 1130 µM) | – | – | – | – | – | – | –
11 | CC1(C)CC[C@]2(C(=O)O)CC[C@]3(C)C(=CC[C@@H]4[C@@]5(CO)C[C@@H](O)[C@H](O)[C@@](C)(CO)[C@@H]5CC[C@]43C)[C@@H]2C1 | > 512 | > 512 | – | – | – | – | – | – | –
12 | C[C@@H]1CC[C@]2(C(=O)O)CC[C@]3(C)C(=CC[C@@H]4[C@@]5(C)CC[C@H](O)[C@@](C)(CO)[C@@H]5CC[C@]43C)[C@@H]2[C@]1(C)O [ROTUNDIC ACID] | 128 (≈ 262 µM) | 256 (≈ 524 µM) | – | – | – | – | – | – | –
13 | C[C@H]1[C@H](C)CC[C@]2(C(=O)O)CC[C@]3(C)C(=CC[C@@H]4[C@@]5(C)CC[C@H](O)C(C)(C)[C@@H]5CC[C@]43C)[C@H]12 [URSOLIC ACID] | 64 (≈ 140 µM) | 64 (≈ 140 µM) | – | – | – | – | – | – | –
14 | C[C@H]1[C@H](C)CC[C@]2(C)CC[C@]3(C)C(=CC[C@@H]4[C@@]5(C)CC[C@H](O)C(C)(C)[C@@H]5CC[C@]43C)[C@H]12 | > 512 | > 512 | – | – | – | – | – | – | –
15 | C[C@H]1[C@H](C)CC[C@]2(C)CC[C@]3(C)C(=CC[C@@H]4[C@@]5(C)CC[C@@H](O)[C@](C)(C(=O)O)[C@@H]5CC[C@]43C)[C@H]12 [BOSWELLIC ACID] | 8 (≈ 17.5 µM) | 8 (≈ 17.5 µM) | – | – | – | – | – | – | –
